Legend:
Assay in all cases: kinome screen (33PanQinase)
Assay type in all cases: biochemical
AuroraB = target: T1, AuroraB (Homo sapiens, UniProt Q96GD4)
T1 construct: purchased Reaction Biology Europe GmbH (formerly ProQinase)
Description: (§1) The Kinome Screening was performed by Reaction Biology Europe GmbH (http://reactionbiology.com; Freiburg i. Br., Germany).

DMPK = target: T2, DMPK (Homo sapiens, UniProt Q09013)
T2 construct: purchased Reaction Biology Europe GmbH (formerly ProQinase)
T2 sequence (Q09013 1-629): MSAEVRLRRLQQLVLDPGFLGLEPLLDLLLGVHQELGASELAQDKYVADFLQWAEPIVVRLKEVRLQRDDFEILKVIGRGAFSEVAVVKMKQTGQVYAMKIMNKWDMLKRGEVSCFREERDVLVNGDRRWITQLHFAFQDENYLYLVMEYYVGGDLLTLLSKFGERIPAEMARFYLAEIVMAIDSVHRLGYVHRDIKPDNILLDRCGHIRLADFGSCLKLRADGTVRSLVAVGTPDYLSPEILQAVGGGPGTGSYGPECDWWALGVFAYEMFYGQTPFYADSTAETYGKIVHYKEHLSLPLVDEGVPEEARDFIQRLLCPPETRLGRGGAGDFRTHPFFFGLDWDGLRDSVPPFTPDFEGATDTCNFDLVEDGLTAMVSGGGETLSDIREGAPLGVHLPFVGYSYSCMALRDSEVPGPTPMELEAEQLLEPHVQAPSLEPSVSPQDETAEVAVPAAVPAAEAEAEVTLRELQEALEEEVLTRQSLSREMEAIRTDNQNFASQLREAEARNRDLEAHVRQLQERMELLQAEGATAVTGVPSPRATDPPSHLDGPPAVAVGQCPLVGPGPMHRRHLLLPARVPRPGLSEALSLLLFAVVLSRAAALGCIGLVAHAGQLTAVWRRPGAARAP
Description: as §1

PDGFRα = target: T3, PDGFRα (Homo sapiens, UniProt P16234)
T3 construct: purchased Reaction Biology Europe GmbH (formerly ProQinase)
Description: as §1

CDK17/p35NCK = target: T4, CDK17/p35NCK (Homo sapiens, UniProt Q00537)
T4 construct: purchased Reaction Biology Europe GmbH (formerly ProQinase)
Description: as §1

EPHA8 = target: T5, EPHA8 (Homo sapiens, UniProt P29322)
T5 construct: purchased Reaction Biology Europe GmbH (formerly ProQinase)
T5 sequence (P29322 28-1005): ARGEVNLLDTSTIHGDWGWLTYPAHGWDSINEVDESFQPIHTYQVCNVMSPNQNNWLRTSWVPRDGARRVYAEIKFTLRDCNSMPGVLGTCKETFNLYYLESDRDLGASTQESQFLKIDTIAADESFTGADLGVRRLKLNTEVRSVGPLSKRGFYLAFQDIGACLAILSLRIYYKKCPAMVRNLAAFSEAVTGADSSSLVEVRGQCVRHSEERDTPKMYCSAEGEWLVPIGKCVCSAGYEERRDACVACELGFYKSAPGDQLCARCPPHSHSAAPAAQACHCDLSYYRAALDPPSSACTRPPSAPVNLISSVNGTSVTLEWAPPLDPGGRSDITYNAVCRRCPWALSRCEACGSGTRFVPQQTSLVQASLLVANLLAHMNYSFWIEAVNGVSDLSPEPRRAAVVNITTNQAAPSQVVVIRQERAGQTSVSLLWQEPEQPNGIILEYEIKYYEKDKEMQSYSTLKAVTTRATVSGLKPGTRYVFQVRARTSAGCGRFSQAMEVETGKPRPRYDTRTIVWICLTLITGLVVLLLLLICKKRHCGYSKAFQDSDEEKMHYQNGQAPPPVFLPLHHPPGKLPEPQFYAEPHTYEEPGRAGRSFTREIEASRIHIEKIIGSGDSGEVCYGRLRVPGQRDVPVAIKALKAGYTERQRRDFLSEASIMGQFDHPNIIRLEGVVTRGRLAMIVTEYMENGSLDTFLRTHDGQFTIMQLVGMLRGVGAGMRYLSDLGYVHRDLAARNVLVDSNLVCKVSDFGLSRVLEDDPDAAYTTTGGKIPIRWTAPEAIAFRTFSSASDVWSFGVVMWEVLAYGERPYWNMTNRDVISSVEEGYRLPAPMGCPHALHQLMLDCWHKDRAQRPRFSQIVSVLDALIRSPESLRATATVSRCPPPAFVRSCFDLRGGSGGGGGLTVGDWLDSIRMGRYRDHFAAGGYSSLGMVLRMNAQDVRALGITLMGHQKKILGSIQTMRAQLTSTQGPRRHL
Description: as §1

ERK5 = target: T6, ERK5 (Homo sapiens, UniProt Q13164)
T6 construct: purchased Reaction Biology Europe GmbH (formerly ProQinase)
Description: as §1

JNK1 = target: T7, JNK1 (Homo sapiens, UniProt P45983)
T7 construct: purchased Reaction Biology Europe GmbH (formerly ProQinase)
Description: as §1

IKKε = target: T8, IKKε (Homo sapiens, UniProt Q14164)
T8 construct: purchased Reaction Biology Europe GmbH (formerly ProQinase)
T8 sequence (Q14164 1-716): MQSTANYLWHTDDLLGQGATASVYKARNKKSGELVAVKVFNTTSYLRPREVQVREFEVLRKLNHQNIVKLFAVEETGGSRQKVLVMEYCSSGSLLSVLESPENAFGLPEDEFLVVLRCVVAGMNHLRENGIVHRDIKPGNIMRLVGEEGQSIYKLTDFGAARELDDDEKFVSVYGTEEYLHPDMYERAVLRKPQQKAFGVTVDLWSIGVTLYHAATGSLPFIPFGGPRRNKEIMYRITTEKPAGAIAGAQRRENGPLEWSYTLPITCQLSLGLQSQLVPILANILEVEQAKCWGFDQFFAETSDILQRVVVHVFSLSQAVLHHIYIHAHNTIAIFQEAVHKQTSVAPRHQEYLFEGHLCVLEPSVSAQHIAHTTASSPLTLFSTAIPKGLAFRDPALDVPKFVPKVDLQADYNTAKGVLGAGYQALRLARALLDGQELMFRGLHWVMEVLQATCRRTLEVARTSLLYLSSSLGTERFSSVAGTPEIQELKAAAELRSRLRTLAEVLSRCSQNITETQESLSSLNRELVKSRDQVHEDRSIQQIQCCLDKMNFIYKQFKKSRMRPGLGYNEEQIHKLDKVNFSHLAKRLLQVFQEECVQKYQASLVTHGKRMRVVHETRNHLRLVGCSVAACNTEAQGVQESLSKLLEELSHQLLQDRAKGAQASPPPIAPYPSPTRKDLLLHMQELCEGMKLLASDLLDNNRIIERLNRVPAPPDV
Description: as §1

T6 sequence (Q13164 whole entry): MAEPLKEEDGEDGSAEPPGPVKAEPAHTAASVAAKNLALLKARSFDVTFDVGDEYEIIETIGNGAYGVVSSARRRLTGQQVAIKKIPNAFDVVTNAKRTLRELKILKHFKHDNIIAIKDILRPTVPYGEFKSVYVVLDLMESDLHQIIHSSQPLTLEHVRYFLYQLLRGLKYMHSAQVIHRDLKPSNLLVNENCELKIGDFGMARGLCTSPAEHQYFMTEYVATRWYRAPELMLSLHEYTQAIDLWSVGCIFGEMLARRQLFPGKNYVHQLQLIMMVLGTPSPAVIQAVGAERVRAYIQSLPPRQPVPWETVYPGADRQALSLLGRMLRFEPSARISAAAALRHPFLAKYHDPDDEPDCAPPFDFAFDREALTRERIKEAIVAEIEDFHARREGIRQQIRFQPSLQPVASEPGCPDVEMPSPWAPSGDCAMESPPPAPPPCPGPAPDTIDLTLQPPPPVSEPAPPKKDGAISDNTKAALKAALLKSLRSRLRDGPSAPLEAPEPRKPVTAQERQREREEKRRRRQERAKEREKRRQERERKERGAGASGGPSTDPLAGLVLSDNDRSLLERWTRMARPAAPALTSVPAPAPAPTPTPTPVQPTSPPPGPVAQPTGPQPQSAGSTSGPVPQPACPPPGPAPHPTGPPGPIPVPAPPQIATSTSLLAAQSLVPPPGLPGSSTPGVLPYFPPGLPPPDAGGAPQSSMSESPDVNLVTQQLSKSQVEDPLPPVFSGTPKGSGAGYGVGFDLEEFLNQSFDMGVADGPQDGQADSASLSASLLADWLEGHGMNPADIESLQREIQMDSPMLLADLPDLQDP
T3 sequence (P16234 24-1089): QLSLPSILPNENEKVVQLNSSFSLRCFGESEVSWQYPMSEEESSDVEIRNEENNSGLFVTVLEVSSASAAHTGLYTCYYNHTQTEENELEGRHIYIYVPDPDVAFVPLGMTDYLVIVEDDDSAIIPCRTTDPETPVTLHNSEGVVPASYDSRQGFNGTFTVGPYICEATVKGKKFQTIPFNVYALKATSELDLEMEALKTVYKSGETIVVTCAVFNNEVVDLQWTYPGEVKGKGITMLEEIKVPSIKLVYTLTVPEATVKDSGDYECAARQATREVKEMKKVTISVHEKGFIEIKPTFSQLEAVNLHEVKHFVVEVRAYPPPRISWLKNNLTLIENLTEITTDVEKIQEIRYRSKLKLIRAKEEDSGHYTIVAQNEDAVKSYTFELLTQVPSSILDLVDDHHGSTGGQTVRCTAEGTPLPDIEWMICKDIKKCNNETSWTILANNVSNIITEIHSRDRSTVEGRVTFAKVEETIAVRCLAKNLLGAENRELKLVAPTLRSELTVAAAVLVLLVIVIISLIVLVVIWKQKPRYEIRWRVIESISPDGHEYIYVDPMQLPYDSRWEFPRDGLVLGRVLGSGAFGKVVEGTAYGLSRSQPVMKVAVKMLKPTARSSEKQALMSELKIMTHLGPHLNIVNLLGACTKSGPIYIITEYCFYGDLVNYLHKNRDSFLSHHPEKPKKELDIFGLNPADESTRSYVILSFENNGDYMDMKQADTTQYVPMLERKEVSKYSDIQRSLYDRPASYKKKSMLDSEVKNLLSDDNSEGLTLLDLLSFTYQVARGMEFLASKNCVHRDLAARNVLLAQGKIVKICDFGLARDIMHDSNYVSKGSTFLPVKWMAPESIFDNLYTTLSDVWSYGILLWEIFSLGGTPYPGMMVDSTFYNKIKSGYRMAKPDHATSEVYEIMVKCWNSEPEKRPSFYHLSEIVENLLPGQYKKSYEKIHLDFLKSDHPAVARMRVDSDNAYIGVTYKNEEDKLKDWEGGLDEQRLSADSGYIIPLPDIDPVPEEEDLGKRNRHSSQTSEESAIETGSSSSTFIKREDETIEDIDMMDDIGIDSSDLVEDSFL
T1 sequence (Q96GD4 whole entry): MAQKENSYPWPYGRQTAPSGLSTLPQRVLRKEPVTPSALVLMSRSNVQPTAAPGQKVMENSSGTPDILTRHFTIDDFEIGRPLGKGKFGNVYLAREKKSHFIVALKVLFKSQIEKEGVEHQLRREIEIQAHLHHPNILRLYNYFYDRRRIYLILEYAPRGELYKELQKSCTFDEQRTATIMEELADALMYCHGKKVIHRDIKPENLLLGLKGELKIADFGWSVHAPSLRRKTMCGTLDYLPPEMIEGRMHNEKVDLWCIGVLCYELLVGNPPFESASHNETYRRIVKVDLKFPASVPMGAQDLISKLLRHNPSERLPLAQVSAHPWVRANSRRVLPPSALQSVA
T7 sequence (P45983 whole entry): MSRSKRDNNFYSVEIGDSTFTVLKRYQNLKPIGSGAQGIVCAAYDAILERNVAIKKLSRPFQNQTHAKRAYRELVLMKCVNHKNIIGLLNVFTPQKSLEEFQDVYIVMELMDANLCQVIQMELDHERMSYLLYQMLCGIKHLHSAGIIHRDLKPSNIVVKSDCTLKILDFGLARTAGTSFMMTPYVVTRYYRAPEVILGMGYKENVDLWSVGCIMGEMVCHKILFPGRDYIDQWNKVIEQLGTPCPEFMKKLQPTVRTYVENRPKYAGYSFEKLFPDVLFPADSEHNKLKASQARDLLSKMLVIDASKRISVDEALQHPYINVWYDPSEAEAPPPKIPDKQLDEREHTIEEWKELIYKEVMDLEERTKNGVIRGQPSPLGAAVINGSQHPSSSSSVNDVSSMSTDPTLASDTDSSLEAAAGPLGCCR
T4 sequence (Q00537 whole entry): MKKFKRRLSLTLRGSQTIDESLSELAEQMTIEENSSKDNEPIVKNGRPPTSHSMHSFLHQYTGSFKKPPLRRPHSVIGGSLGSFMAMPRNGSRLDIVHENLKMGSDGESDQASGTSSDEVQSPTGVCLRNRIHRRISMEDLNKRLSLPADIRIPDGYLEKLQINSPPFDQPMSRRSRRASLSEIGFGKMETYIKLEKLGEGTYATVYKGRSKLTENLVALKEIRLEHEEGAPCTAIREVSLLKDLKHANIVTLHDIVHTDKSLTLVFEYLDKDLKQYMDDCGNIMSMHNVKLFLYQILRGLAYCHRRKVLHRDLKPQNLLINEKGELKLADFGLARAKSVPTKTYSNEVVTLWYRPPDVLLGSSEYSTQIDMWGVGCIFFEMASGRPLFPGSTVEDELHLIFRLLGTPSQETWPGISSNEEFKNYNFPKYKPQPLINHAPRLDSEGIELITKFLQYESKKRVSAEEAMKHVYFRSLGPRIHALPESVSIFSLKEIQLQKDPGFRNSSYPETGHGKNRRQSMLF
T4 sequence (Q15078 whole entry partner): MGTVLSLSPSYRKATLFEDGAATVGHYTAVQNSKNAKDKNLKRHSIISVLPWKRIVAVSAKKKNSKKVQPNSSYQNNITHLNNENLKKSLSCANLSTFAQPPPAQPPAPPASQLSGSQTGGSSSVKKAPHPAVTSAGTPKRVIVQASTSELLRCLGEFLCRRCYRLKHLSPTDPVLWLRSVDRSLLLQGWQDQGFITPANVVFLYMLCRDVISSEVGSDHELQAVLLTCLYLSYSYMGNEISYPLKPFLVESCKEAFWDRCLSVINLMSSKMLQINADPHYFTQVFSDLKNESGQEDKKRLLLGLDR

COc1ccnc2[nH]cc(-c3cc(N)nc(N)c3)c12 [meriolin 16]
residual kinase activity (AuroraB; 0.03 µM): 85 % of control
residual kinase activity (AuroraB; 0.3 µM): 61 % of control
residual kinase activity (DMPK; 0.03 µM): 86 % of control
residual kinase activity (DMPK; 0.3 µM): 63 % of control
residual kinase activity (PDGFRα; 0.03 µM): 89 % of control
residual kinase activity (PDGFRα; 0.3 µM): 60 % of control
residual kinase activity (CDK17/p35NCK; 0.03 µM): 46 % of control
residual kinase activity (CDK17/p35NCK; 0.3 µM): 24 % of control
residual kinase activity (EPHA8; 0.03 µM): 119 % of control
residual kinase activity (EPHA8; 0.3 µM): 107 % of control
residual kinase activity (ERK5; 0.03 µM): 28 % of control
residual kinase activity (ERK5; 0.3 µM): 22 % of control
residual kinase activity (JNK1; 0.03 µM): 102 % of control
residual kinase activity (JNK1; 0.3 µM): 95 % of control
residual kinase activity (IKKε; 0.03 µM): 94 % of control
residual kinase activity (IKKε; 0.3 µM): 61 % of control

c1ccc(CNc2cc(-c3c[nH]c4ncccc34)ccn2)cc1 [meriolin 36]
residual kinase activity (AuroraB; 0.3 µM): 67 % of control
residual kinase activity (AuroraB; 3 µM): 26 % of control
residual kinase activity (DMPK; 0.3 µM): 3 % of control
residual kinase activity (DMPK; 3 µM): -2 % of control
residual kinase activity (PDGFRα; 0.3 µM): 25 % of control
residual kinase activity (PDGFRα; 3 µM): 8 % of control
residual kinase activity (CDK17/p35NCK; 0.3 µM): 20 % of control
residual kinase activity (CDK17/p35NCK; 3 µM): 10 % of control
residual kinase activity (EPHA8; 0.3 µM): 113 % of control
residual kinase activity (EPHA8; 3 µM): 94 % of control
residual kinase activity (ERK5; 0.3 µM): 13 % of control
residual kinase activity (ERK5; 3 µM): 8 % of control
residual kinase activity (JNK1; 0.3 µM): 74 % of control
residual kinase activity (JNK1; 3 µM): 23 % of control
residual kinase activity (IKKε; 0.3 µM): 40 % of control
residual kinase activity (IKKε; 3 µM): 6 % of control

— article PMC11167047 (Cell Death Discovery, 2024)
